# Assay results as given in ChEMBL document CHEMBL4177703, “The discovery and optimization of naphthalene-linked P2-P4 Macrocycles as inhibitors of HCV NS3 protease” (Bioorg Med Chem Lett, 2018).
# How the values were obtained:
# [1] = Cardiotoxicity in Langendorff perfused rabbit heart assessed as change in QT interval at 10 uM measured over 10 mins by electrocardiography (reference value: 0%); format: toxicity, tissue-based, Oryctolagus cuniculus
# [2] = AUC in Sprague-Dawley rat at 15 mg/kg, po after 24 hrs; format: ADME, organism-based; design: time < 24 hr, dose 15 mg/kg, route oral; conditions: in vivo
# [3] = Cardiotoxicity in Langendorff perfused rabbit heart assessed as change in PR interval at 10 uM measured over 10 mins by electrocardiography (reference value: 0%); format: toxicity, tissue-based, Oryctolagus cuniculus
# [4] = Cardiotoxicity in Langendorff perfused rabbit heart assessed as change in heart rate at 10 uM measured over 10 mins by electrocardiography (reference value: 0%); format: toxicity, tissue-based, Oryctolagus cuniculus
# [5] = Half life in Sprague-Dawley rat at 5 mg/kg, iv after 24 hrs; format: ADME, organism-based; conditions: in vivo
# [6] = Cardiotoxicity in Langendorff perfused rabbit heart assessed as change in heart rate at 10 uM measured over 30 mins by electrocardiography (reference value: 0%); format: toxicity, tissue-based, Oryctolagus cuniculus; conditions: 0.5 h
# [7] = Clearance in Sprague-Dawley rat at 5 mg/kg, iv after 24 hrs; format: ADME, organism-based; conditions: in vivo
# [8] = Cardiotoxicity in Langendorff perfused rabbit heart assessed as change in QRS interval at 10 uM measured over 20 mins by electrocardiography (reference value: 0%); format: toxicity, tissue-based, Oryctolagus cuniculus
# [9] = Cardiotoxicity in Langendorff perfused rabbit heart assessed as change in sinus node recovery time at 10 uM measured over 20 mins by electrocardiography (reference value: 0%); format: toxicity, tissue-based, Oryctolagus cuniculus
# [10] = Cardiotoxicity in Langendorff perfused rabbit heart assessed as change in QRS interval at 10 uM measured over 10 mins by electrocardiography (reference value: 0%); format: toxicity, tissue-based, Oryctolagus cuniculus
# [11] = Cardiotoxicity in Langendorff perfused rabbit heart assessed as change in QRS interval at 10 uM measured over 30 mins by electrocardiography (reference value: 0%); format: toxicity, tissue-based, Oryctolagus cuniculus; conditions: 0.5 h
# [12] = Cardiotoxicity in Langendorff perfused rabbit heart assessed as change in coronary flow at 10 uM measured over 10 mins by electrocardiography (reference value: 0%); format: toxicity, tissue-based, Oryctolagus cuniculus
# [13] = Cardiotoxicity in Langendorff perfused rabbit heart assessed as change in heart rate at 10 uM measured over 20 mins by electrocardiography (reference value: 0%); format: toxicity, tissue-based, Oryctolagus cuniculus
# [14] = Cardiotoxicity in Langendorff perfused rabbit heart assessed as change in sinus node recovery time at 10 uM measured over 10 mins by electrocardiography (reference value: 0%); format: toxicity, tissue-based, Oryctolagus cuniculus
# [15] = Half life in Sprague-Dawley rat at 15 mg/kg, po after 24 hrs; format: ADME, organism-based; conditions: in vivo
# [16] = Cardiotoxicity in Langendorff perfused rabbit heart assessed as change in coronary flow at 10 uM measured over 20 mins by electrocardiography (reference value: 0%); format: toxicity, tissue-based, Oryctolagus cuniculus
# [17] = Half life in human liver microsomes in presence of NADPH; format: ADME, microsome
# [18] = AUC in Sprague-Dawley rat at 5 mg/kg, iv after 24 hrs; format: ADME, organism-based; design: dose 5 mg/kg, time < 24 hr, route intravenous; conditions: in vivo
# [19] = Drug concentration in Sprague-Dawley rat liver at 15 mg/kg, po after 24 hrs; format: ADME, organism-based; conditions: read-out: Drug uptake
# [20] = Cardiotoxicity in Langendorff perfused rabbit heart assessed as change in QT interval at 10 uM measured over 30 mins by electrocardiography (reference value: 0%); format: toxicity, tissue-based, Oryctolagus cuniculus; conditions: 0.5 h
# [21] = Cardiotoxicity in Langendorff perfused rabbit heart assessed as change in QT interval at 10 uM measured over 20 mins by electrocardiography (reference value: 0%); format: toxicity, tissue-based, Oryctolagus cuniculus
# [22] = Cardiotoxicity in Langendorff perfused rabbit heart assessed as change in PR interval at 10 uM measured over 20 mins by electrocardiography (reference value: 0%); format: toxicity, tissue-based, Oryctolagus cuniculus
# [23] = Oral bioavailability in Sprague-Dawley rat at 15 mg/kg after 24 hrs; format: ADME, organism-based; conditions: in vivo
# [24] = Cardiotoxicity in Langendorff perfused rabbit heart assessed as change in coronary flow at 10 uM measured over 30 mins by electrocardiography (reference value: 0%); format: toxicity, tissue-based, Oryctolagus cuniculus; conditions: 0.5 h
# [25] = Cardiotoxicity in Langendorff perfused rabbit heart assessed as change in PR interval at 10 uM measured over 30 mins by electrocardiography (reference value: 0%); format: toxicity, tissue-based, Oryctolagus cuniculus; conditions: 0.5 h
# [26] = Drug concentration in Sprague-Dawley rat liver at 5 mg/kg, iv after 24 hrs; format: ADME, organism-based; conditions: read-out: Drug uptake
# [27] = Cardiotoxicity in Langendorff perfused rabbit heart assessed as change in sinus node recovery time at 10 uM measured over 30 mins by electrocardiography (reference value: 0%); format: toxicity, tissue-based, Oryctolagus cuniculus; conditions: 0.5 h
# [28] = Oral bioavailability in rat at 15 mg/kg; format: ADME, organism-based; conditions: in vivo
# [29] = Clearance in rat at 5 mg/kg, iv or 15 mg/kg, po; format: ADME, organism-based; conditions: in vivo
# [30] = Drug concentration in Sprague-Dawley rat liver at 5 mg/kg, iv after 6 hrs; format: ADME, organism-based; conditions: read-out: Drug uptake
# [31] = Clearance in Sprague-Dawley rat at 5 mg/kg, iv after 6 hrs; format: ADME, organism-based; conditions: in vivo
# [32] = AUC in Sprague-Dawley rat at 5 mg/kg, iv after 6 hrs; format: ADME, organism-based; design: time < 6 hr, dose 5 mg/kg, route intravenous; conditions: in vivo
# [33] = AUC in Sprague-Dawley rat at 15 mg/kg, po after 6 hrs; format: ADME, organism-based; design: dose 15 mg/kg, time < 6 hr, route oral; conditions: in vivo
# [34] = Drug concentration in Sprague-Dawley rat liver at 15 mg/kg, po after 6 hrs; format: ADME, organism-based; conditions: read-out: Drug uptake
smiles,measurement,setting,value
COc1cc2ccc3cc2cc1CCCC(C)(C)CCOC(=O)N[C@@H](C(C)(C)C)C(=O)N1C[C@@]3(OC)C[C@H]1C(=O)N[C@]1(C(=O)NS(=O)(=O)C2CC2)C[C@H]1C1CC1,Activity,[1],-4%
same,AUC at 24 h,[2],87 µM·h
same,Activity,[3],4%
same,Activity,[4],5%
same,half-life,[5],9.6 h
same,Activity,[6],-16%
same,clearance,[7],0.21 L/h/kg
same,Activity,[8],31%
same,Activity,[9],16%
same,Activity,[10],17%
same,Activity,[11],31%
same,Activity,[12],43%
same,Activity,[13],-5%
same,Activity,[14],3%
same,half-life,[15],3.9 h
same,Activity,[16],14%
same,half-life,[17],1.27 h
same,AUC at 24 h,[18],29 µM·h
same,concentration at 24 h,[19],85 µM
same,Activity,[20],0%
same,Activity,[21],0%
same,Activity,[22],0%
same,bioavailability,[23],100%
same,Activity,[24],-10%
same,Activity,[25],0%
same,concentration at 24 h,[26],100 µM
C=C[C@@H]1C[C@]1(NC(=O)[C@@H]1C[C@]2(OC)CN1C(=O)[C@H](C(C)(C)C)NC(=O)OCCCCCOc1ccc3ccc2cc3c1)C(=O)NS(=O)(=O)C1CC1,half-life,[17],0.367 h
COc1cc2ccc3cc2cc1OCCCN(C1CC1)CCOC(=O)N[C@@H](C(C)(C)C)C(=O)N1C[C@@]3(OC)C[C@H]1C(=O)N[C@]1(C(=O)NS(=O)(=O)C2CC2)C[C@H]1C1CC1,AUC at 24 h,[2],18 µM·h
same,half-life,[5],20 h
same,clearance,[7],0.21 L/h/kg
same,half-life,[15],8 h
same,half-life,[17],0.717 h
same,AUC at 24 h,[18],33 µM·h
same,bioavailability,[23],18%
COC(=O)N1CCCOc2cc3cc(ccc3cc2OC)[C@]2(OC)C[C@@H](C(=O)N[C@]3(C(=O)NS(=O)(=O)C4CC4)C[C@H]3C3CC3)N(C2)C(=O)[C@H](C(C)(C)C)NC(=O)OCC1,half-life,[17],> 2 h
C=C[C@@H]1C[C@]1(NC(=O)[C@@H]1C[C@]2(OC)CN1C(=O)[C@H](C(C)(C)C)NC(=O)OCCCCCCCCc1cc3cc2ccc3cc1OC)C(=O)NS(=O)(=O)C1CC1,half-life,[17],0.55 h
COc1cc2ccc3cc2cc1CCCCCCOC(=O)N[C@@H](C(C)(C)C)C(=O)N1C[C@@]3(OC)C[C@H]1C(=O)N[C@]1(C(=O)NS(=O)(=O)C2CC2)C[C@H]1C1CC1,Activity,[1],7%
same,AUC at 24 h,[2],59 µM·h
same,Activity,[3],2%
same,Activity,[4],-2%
same,half-life,[5],9.5 h
same,Activity,[27],19%
same,Activity,[6],-13%
same,clearance,[7],0.12 L/h/kg
same,Activity,[8],32%
same,Activity,[9],6%
same,Activity,[10],10%
same,Activity,[11],43%
same,Activity,[12],18%
same,Activity,[13],-5%
same,Activity,[14],4%
same,half-life,[15],5.3 h
same,Activity,[16],21%
same,half-life,[17],1.65 h
same,AUC at 24 h,[18],57 µM·h
same,Activity,[20],7%
same,Activity,[21],10%
same,Activity,[22],9%
same,bioavailability,[23],34%
same,Activity,[24],19%
same,Activity,[25],18%
CO[C@@]12C[C@@H](C(=O)N[C@]3(C(=O)NS(=O)(=O)C4CC4)C[C@H]3C3CC3)N(C1)C(=O)[C@H](C(C)(C)C)NC(=O)OCCCCCOc1ccc3ccc2cc3c1,AUC at 24 h,[2],3.6 µM·h
same,half-life,[5],4.6 h
same,clearance,[7],1.14 L/h/kg
same,half-life,[15],4.2 h
same,half-life,[17],0.65 h
same,AUC at 24 h,[18],7.2 µM·h
same,concentration at 24 h,[19],31 µM
same,bioavailability,[23],16%
same,concentration at 24 h,[26],45 µM
C=Cc1cc2cc([C@]3(OC)C[C@@H](C(=O)N[C@]4(C(=O)NS(=O)(=O)C5CC5)C[C@H]4C=C)N(C(=O)[C@@H](NC(=O)OC(C)(C)C)C(C)(C)C)C3)ccc2cc1OC,half-life,[17],0.6 h
COc1cc2ccc3cc2cc1CCCCC(C)(C)COC(=O)N[C@@H](C(C)(C)C)C(=O)N1C[C@@]3(OC)C[C@H]1C(=O)N[C@]1(C(=O)NS(=O)(=O)C2CC2)C[C@H]1C1CC1,half-life,[17],1.38 h
C=C[C@@H]1C[C@]1(NC(=O)[C@@H]1C[C@@H](Oc2ncc(OC)c3ccc(Cl)cc23)CN1C(=O)[C@@H](NC(=O)OC(C)(C)C)C(C)(C)C)C(=O)NS(=O)(=O)C1CC1,bioavailability,[28],12%
same,clearance,[29],2.28 L/h/kg
C=C[C@@H]1C[C@]1(NC(=O)[C@@H]1C[C@@](OC)(c2ccc3cc(OC)ccc3c2)CN1C(=O)[C@@H](NC(=O)OC(C)(C)C)C(C)(C)C)C(=O)NS(=O)(=O)C1CC1,half-life,[17],0.35 h
C=C[C@@H]1C[C@]1(NC(=O)[C@@H]1C[C@]2(OC)CN1C(=O)[C@H](C(C)(C)C)NC(=O)OCC(C)(C)CCCCc1cc3cc2ccc3cc1OC)C(=O)NS(=O)(=O)C1CC1,half-life,[17],0.967 h
C=C[C@@H]1C[C@]1(NC(=O)[C@@H]1C[C@]2(OC)CN1C(=O)[C@H](C(C)(C)C)NC(=O)OCCCCCCc1cc3cc2ccc3cc1OC)C(=O)NS(=O)(=O)C1CC1,concentration at 6 h,[30],95 µM
same,clearance,[31],0.072 L/h/kg
same,AUC at 6 h,[32],90 µM·h
same,half-life,[17],0.417 h
same,AUC at 6 h,[33],27 µM·h
same,concentration at 6 h,[34],108 µM
